Data on five molecules can be found in publication PMC8419835.

The data set can be described thus: Head-to-tail amide by intramolecular native chemical ligation: N,S-acyl shift of a C-terminal N-2-[thioethyl]glycine residue on TentaGel, transthioesterification with 50 equiv external thiol (MESNa or MPAA), then attack by N-terminal Cys and S,N-acyl shift, one pot. As to conditions: the molecule shown is the open-chain precursor, aqueous: procedure B citrate pH 3 then phosphate pH 7.4 (DTT), procedure C 1 M TEAB pH 7.0 (MPAA, DTT), resin, 48.0 h, 2 steps.

Turning to “H-Cys-Thr-Lys-Ser-Ile-Pro-Pro-Ile-Cys-Phe-Pro-Asp-Gly-Arg-[N-2-(thioethyl)Gly]-linker-TentaGel (linker Ala-Ala-Met or bAla-Ala-bAla-Met, text inconsistent; side chains unprotected, both Cys as free SH; via MPAA thioester)”, the ring closure, yield over several steps (42-membered ring) was determined as 40%.

As for `C[C@@H](O)[C@H](NC(=O)[C@H](Cc1ccccc1)NC(=O)[C@@H]1CCCN1C(=O)[C@H](CC(N)=O)NC(=O)[C@@H]1CCCN1C(=O)[C@H](Cc1ccccc1)NC(=O)[C@@H](N)CS)C(=O)Sc1ccc(CC(=O)O)cc1`, where the note is “21-membered ring”, the ring closure, yield over several steps came out at 55%. On to “H-Cys-Arg-Cys-Leu-Cys-Arg-Arg-Gly-Val-Cys-Arg-Cys-Ile-Cys-Thr-Arg-Gly-Phe-[N-2-(thioethyl)Gly]-linker-TentaGel (linker Ala-Ala-Met or bAla-Ala-bAla-Met, text inconsistent; side chains unprotected, all Cys as free SH; via MPAA thioester)”, for which the ring closure, yield over several steps (54-membered ring) came out at 39%. `C[C@H](NC(=O)[C@H](CCCCN)NC(=O)[C@@H]1CCCN1C(=O)[C@@H](N)CS)C(=O)SCCS(=O)(=O)O`: the ring closure, yield over several steps (12-membered ring) is 24.1%. With `C[C@H](NC(=O)[C@H](CCCCN)NC(=O)[C@@H]1CCCN1C(=O)CNC(=O)[C@H](Cc1ccccc1)NC(=O)[C@@H](N)CS)C(=O)SCCS(=O)(=O)O`, the ring closure, yield over several steps (18-membered ring) amounted to 25.8%.
